Source: ChEMBL document CHEMBL5046276 (J Med Chem, 2022)
The source made the active and inactive calls. The rule behind the calls is not given here.

Experiments:
Plasmodium falciparum [1] = experiment: Antimalarial activity against asexual blood stage chloroquine-resistant Plasmodium falcipuram GB4 assessed as parasite growth inhibition incubated for 72 hrs by SYBR Green I staining based fluorescence analysis; type: functional, organism-based; details: GB4, 72 h
[2] = Drug concentration in BALB/c mouse plasma at 5 mg/kg, ip measured upto 24 hrs by LC-MS/MS analysis; type: ADME, organism-based
Plasmodium yoelii = experiment: Antimalarial activity against blood stage Plasmodium yoelii infected in BALB/c mouse assessed as parasite recrudescence by measuring parasitemia at 60 mg/kg, ip qd for 5 days and measured on 11 to 15 days; type: functional; details: time 11-15 day
[3] = Cytotoxicity against human HepG2 cells incubated for 72 hrs by CCK-8 assay
Plasmodium falciparum [4] = experiment: (§1) Antimalarial activity against synchronized Plasmodium falcipuram 3D7 infected in human RBC assessed as irreversible inhibition of parasite growth at schizont stage at 40 nM treated 29 to 41 hpi incubated for 12 hrs followed by compound washout and replacement with fresh medium without compounds and measured after 4 days by flow cytometry; type: functional, organism-based
[5] = biological target: T1, Protein deacetylase HDAC6 (Homo sapiens) (UniProt Q9UBN7); experiment: Potency index, ratio of test compound IC50 to Quisinostat IC50 for inhibition of recombinant human full length N-terminal GST tagged HDAC6 (1 to 1215 residues) expressed in baculovirus-infected Sf9 cells using Ac-peptide as substrate incubated for 4 hrs
T1 sequence (whole entry): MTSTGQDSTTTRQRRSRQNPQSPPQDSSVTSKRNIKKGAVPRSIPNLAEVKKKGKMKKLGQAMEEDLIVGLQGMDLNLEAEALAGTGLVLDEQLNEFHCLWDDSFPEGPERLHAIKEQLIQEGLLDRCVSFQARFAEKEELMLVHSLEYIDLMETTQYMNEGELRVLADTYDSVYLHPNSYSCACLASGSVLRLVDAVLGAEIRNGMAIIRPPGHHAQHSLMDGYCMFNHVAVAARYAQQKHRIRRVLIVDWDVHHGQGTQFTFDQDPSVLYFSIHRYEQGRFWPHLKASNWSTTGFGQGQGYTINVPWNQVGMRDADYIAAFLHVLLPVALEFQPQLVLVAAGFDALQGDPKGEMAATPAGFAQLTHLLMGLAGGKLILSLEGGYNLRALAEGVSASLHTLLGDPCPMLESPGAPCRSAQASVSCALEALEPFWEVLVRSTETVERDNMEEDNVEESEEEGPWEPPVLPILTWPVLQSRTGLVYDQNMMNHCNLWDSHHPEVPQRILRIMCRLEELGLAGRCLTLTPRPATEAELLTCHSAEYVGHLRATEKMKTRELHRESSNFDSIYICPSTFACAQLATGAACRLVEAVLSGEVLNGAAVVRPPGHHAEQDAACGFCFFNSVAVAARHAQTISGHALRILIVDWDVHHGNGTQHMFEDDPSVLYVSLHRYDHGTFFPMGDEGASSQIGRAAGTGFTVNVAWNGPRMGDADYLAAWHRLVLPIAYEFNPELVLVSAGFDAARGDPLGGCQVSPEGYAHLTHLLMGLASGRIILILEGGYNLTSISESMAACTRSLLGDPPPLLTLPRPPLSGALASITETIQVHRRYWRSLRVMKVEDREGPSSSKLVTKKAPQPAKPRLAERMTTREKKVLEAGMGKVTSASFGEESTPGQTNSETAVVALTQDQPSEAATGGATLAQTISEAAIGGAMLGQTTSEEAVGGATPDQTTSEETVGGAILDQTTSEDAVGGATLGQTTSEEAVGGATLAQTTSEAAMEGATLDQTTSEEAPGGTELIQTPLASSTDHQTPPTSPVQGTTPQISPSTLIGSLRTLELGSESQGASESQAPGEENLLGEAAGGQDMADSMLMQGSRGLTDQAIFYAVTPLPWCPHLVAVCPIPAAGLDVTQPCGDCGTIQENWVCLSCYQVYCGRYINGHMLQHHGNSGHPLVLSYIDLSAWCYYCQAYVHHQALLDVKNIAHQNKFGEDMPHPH

[6] = In vivo inhibition of C-terminal glmS fused HDAC1 in Plasmodium falcipuram 3D7 assessed as inhibition of parasite growth incubated for 4 hrs followed by compound washout and replacement with fresh medium with compounds measured after 68 hrs by SYBR Green I staining based fluorescence analysis; type: functional, organism-based, Plasmodium falciparum
Plasmodium falciparum [7] = experiment: In vivo inhibition of C-terminal glmS fused HDAC2 in Plasmodium falcipuram 3D7 assessed as inhibition of parasite growth incubated for 4 hrs followed by compound washout and replacement with fresh medium with compounds measured after 68 hrs by SYBR Green I staining based fluorescence analysis; type: functional, organism-based
Histone deacetylase 2 = Histone deacetylase 2 (Homo sapiens, UniProt Q92769); experiment: biochemical; type: cell-based, Sf9
Chain of Histone deacetylase 2 (Q92769 whole entry): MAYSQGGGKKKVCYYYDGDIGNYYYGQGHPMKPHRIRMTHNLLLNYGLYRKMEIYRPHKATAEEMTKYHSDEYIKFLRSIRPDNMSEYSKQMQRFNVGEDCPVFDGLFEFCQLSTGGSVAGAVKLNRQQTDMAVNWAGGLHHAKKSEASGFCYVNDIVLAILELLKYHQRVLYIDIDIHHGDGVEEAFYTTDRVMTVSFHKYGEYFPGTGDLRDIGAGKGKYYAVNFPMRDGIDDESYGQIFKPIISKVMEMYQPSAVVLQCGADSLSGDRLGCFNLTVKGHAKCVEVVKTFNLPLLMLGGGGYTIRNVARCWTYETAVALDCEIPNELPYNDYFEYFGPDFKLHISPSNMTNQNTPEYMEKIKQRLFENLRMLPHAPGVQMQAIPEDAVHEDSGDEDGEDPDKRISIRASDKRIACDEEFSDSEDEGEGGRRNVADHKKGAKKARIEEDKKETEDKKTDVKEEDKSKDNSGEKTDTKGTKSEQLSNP
Description: Inhibition of recombinant human full length C-terminal His tagged HDAC2 (1 to 488 residues) expressed in baculovirus-infected Sf9 insect cells using Ac-peptide as substrate incubated for 4 hrs

[8] = AUC (0 to infinity) in BALB/c mouse at 5 mg/kg, ip measured after upto 24 hrs by LC-MS/MS analysis; type: ADME, organism-based; parameters: route intraperitoneal, dose 5 mg/kg, time <=24; details: in vivo
Plasmodium falciparum [9] = experiment: Antimalarial activity against synchronized Plasmodium falcipuram 3D7 infected in human RBC assessed as fold reduction in reinvasion of ring stage parasites at 40 nM incubated for 12 hrs followed by compound washout and replacement with fresh medium without compounds and measured at 50 hrs post infection by flow cytometry; type: functional
[10] = biological target: T2, Histone deacetylase 8 (Homo sapiens) (UniProt Q9BY41); experiment: Potency index, ratio of test compound IC50 to Quisinostat IC50 for inhibition of recombinant human full length C-terminal His-tagged HDAC8 expressed in baculovirus-infected Sf9 insect cells using Ac-peptide as substrate incubated for 4 hrs followed by trypsin addition and further incubated for 2 hrs
T2 sequence (whole entry): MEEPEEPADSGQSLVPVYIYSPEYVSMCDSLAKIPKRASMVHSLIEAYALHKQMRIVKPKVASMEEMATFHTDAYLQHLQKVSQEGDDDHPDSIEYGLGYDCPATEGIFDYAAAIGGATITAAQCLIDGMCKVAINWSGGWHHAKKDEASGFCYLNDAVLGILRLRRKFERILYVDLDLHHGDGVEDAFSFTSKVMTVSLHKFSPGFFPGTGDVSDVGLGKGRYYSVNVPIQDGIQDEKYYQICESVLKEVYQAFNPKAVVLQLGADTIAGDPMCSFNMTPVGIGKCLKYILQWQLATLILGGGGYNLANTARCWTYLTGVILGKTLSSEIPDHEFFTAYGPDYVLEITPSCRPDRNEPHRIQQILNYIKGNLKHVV

[11] = Toxicity in BALB/c mouse infected with blood stage Plasmodium yoelii assessed as body weight loss at 30 to 90 mg/kg, ip qd for 5 days and measured upto 60 days; type: organism-based; details: in vivo, dose 30-90 mg/kg, time <=60 day
Plasmodium falciparum [12] = experiment: as §1, with “ring” for “schizont”, “at 5” for “29”, “17” for “41”; type: functional, organism-based
Plasmodium falciparum [13] = experiment: Inhibition of Plasmodium falcipuram HDAC assessed as effect on parasite histone deacetylation level at 5 to 20 nM incubated for 4 hrs by Western blot analysis; details: dose 5-20 nM
Plasmodium falciparum [14] = experiment: Antimalarial activity against wild-type Plasmodium falcipuram 3D7 infected in human RBC assessed as reduction in parasitemia in blood smear by measuring parasite survival ratio at ring stage at upto 700 nM incubated for 6 hrs followed by compound washout and replacement with fresh medium without compounds and measured after 66 hrs by ring stage survival assay; type: functional; details: dose nM <=700, time 6.0 hrs
Plasmodium falciparum [15] = experiment: Antimalarial activity against early stage (II) Plasmodium falciparum NF54 gametocytes transfected with p230p-Luc assessed as reduction in gametocyte viability incubated for 48 hrs by luciferase reporter gene based bioluminescence assay; type: functional, organism-based; details: NF54, 48 h

Cl.Cn1cc(CN2CC3(CCN(c4ncc(C(=O)NO)cn4)C3)C2)c2ccc(C#N)cc21
IC50 (Plasmodium falciparum [1]): 3.06 nM
concentration at 24 h [2]: 89 ng/mL
Activity (Plasmodium yoelii): 0.01%
IC50 at 72 h [3]: 1020 nM
Activity (Plasmodium falciparum [4]): Active
Ratio IC50 [5]: 3
IC50 [6]: 16.8 nM
inhibition (Plasmodium falciparum [7]): Active
IC50 (Histone deacetylase 2): 5.1 nM
AUC(0-inf) [8]: 640 ng·h/mL
fold change (FC) (Plasmodium falciparum [9]): 10
Ratio IC50 [10]: 3
Activity [11]: Non-Toxic
Activity (Plasmodium falciparum [12]): Active
Activity (Plasmodium falciparum [13]): Active
Activity (Plasmodium falciparum [14]): Active
IC50 (Plasmodium falciparum [15]): 15.4 nM
